According to US10138260B2, “Compounds of phosphinanes and azaphosphinanes, a process for their preparation and pharmaceutical compositions containing them” (LES LABORATOIRES SERVIER, priority 2016, dated 2018):

Molecular target: T1, TAFIa (Homo sapiens, UniProt Q96IY4)
T1 sequence (Q96IY4 115-423): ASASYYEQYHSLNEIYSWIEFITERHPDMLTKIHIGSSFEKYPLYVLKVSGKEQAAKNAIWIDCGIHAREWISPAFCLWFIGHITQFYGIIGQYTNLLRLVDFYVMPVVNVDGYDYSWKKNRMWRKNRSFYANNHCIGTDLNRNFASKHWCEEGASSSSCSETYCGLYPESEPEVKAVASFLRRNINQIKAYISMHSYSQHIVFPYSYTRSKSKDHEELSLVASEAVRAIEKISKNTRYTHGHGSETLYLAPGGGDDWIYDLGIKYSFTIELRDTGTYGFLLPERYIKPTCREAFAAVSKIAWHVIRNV
Experiment: Inhibition of TAFIa (hippuryl-Arg test)
Type: biochemical
Details: TAFIa 2 nM, hippuryl-arginine 5 mM, 45 minutes, relative to control containing the carrier; for inhibition at 0.01 µM: compound at 10 nM; for inhibition at 0.02 µM: compound at 20 nM
Description: Human TAFI (4 nM) is incubated with human thrombin (10 nM) and human thrombomodulin (5 nM) in the presence of calcium (10 mM). After incubation for 20 minutes, the activation reaction is stopped by addition of PPACK (1 μM final), an irreversible thrombin inhibitor.
The reactions take place in Hepes buffer (25 mM Hepes, 137 mM NaCl, 3.5 mM KCl)+0.1% bovine albumin, pH 7.4 at 28° C. and with stirring.
The test compound is added to the solution of TAFIa (2 nM) and incubated for 45 minutes in the presence of hippuryl-arginine (5 mM). The reaction is stopped by addition of hydrochloric acid (1M) neutralised subsequently with sodium hydroxide (1M), and then the mixture is buffered with disodium hydroxyphosphate (1M pH 7.4). […] The reaction mixture is stirred (vortex) and then centrifuged. The supernatant is transferred to a 96-well microplate, and the absorbance is measured using a spectrophotometer at 405 nm (Spectramax plus, Molecular Devices).
The OD value of a well containing the reagents without TAFI is subtracted from all the OD values measured. The percentage inhibition of TAFIa at a given concentration of the test compound is determined by means of the following formula: % inhibition=100−[(OD compound×100)/OD carrier]
The compounds are evaluated at 10 nM and 20 nM under the experimental conditions described above and the results are expressed as the percentage inhibition relative to a control containing the carrier in the absence of compound.

Compound | inhibition at 0.01 µM [%] | inhibition at 0.02 µM [%]
Cc1ccc(-c2cc(Cl)ccc2CN2CCP(=O)(O)[C@](CCCCN)(C(=O)O)C2)cc1 [Example 218, (3S)-3-(4-AMINOBUTYL)-1-[[4-CHLORO-2-(4-METHYLPHENYL)PHENYL]METHYL]-4-HYDROXY-4-OXO-1,4-AZAPHOSPHINANE-3-CARBOXYLIC ACID] | 67 | 83
Cc1ncc(-c2cc(F)ccc2CN2CCP(=O)(O)[C@](CCCCN)(C(=O)O)C2)n1C [Example 219, (3S)-3-(4-AMINOBUTYL)-1-[2-(1,2-DIMETHYL-1H-IMIDAZOL-5-YL)-4-FLUOROBENZYL]-4-HYDROXY-4-OXO-1,4-AZAPHOSPHINANE-3-CARBOXYLIC ACID] | 92 | 98
NCCCC[C@@]1(C(=O)O)CN(Cc2ccc(F)cc2-c2cnc3ccccn23)CCP1(=O)O [Example 220, (3S)-3-(4-AMINOBUTYL)-1-[(4-FLUORO-2-IMIDAZO[1,2-A]PYRIDIN-3-YLPHENYL)METHYL]-4-HYDROXY-4-OXO-1,4-AZAPHOSPHINANE-3-CARBOXYLIC ACID] | 83 | 97
COc1cc(-c2cc(F)ccc2CN2CCP(=O)(O)[C@](CCCCN)(C(=O)O)C2)ccn1 [Example 221, (3S)-3-(4-AMINOBUTYL)-1-[[4-FLUORO-2-(2-METHOXYPYRIDIN-4-YL)PHENYL]-METHYL]-4-HYDROXY-4-OXO-1,4-AZAPHOSPHINANE-3-CARBOXYLIC ACID] | 75 | 88
NCCCC[C@@]1(C(=O)O)CN(Cc2ccc(F)cc2-c2cc[nH]c(=O)c2)CCP1(=O)O [Example 222, (3S)-3-(4-AMINOBUTYL)-1-[[4-FLUORO-2-(2-OXO-1H-PYRIDIN-4-YL)PHENYL]-METHYL]-4-HYDROXY-4-OXO-1,4-AZAPHOSPHINANE-3-CARBOXYLIC ACID] | 73 | 85
Cc1ccc(-c2cc(O)ccc2CN2CCP(=O)(O)[C@](CCCCN)(C(=O)O)C2)cc1 [Example 223, (3S)-3-(4-AMINOBUTYL)-4-HYDROXY-1-[[4-HYDROXY-2-(4-METHYLPHENYL)-PHENYL]METHYL]-4-OXO-1,4-AZAPHOSPHINANE-3-CARBOXYLIC ACID] | 71 | 83
NCCCC[C@@]1(C(=O)O)CN(Cc2ccc(O)cc2-c2cnc3ccccn23)CCP1(=O)O [Example 224, (3S)-3-(4-AMINOBUTYL)-4-HYDROXY-1-[4-HYDROXY-2-(IMIDAZO[1,2-A]-PYRIDIN-3-YL)BENZYL]-4-OXO-1,4-AZAPHOSPHINANE-3-CARBOXYLIC ACID] | 86 | 93
NCCCC[C@@]1(C(=O)O)CN(Cc2ccc(O)cc2-c2ccncc2)CCP1(=O)O [Example 225, (3S)-3-(4-AMINOBUTYL)-4-HYDROXY-1-[(4-HYDROXY-2-PYRIDIN-4-YLPHENYL)METHYL]-4-OXO-1,4-AZAPHOSPHINANE-3-CARBOXYLIC ACID] | 76 | 85
NCCCC[C@@]1(C(=O)O)CN(Cc2ccc(F)cc2-c2cccc(F)c2)CCP1(=O)O [Example 226, (3S)-3-(4-AMINOBUTYL)-1-[[4-FLUORO-2-(3-FLUOROPHENYL)PHENYL]METHYL]-4-HYDROXY-4-OXO-1,4-AZAPHOSPHINANE-3-CARBOXYLIC ACID] | 71 | 88
NCCCC[C@@]1(C(=O)O)CN(Cc2ccc(O)cc2-c2cccs2)CCP1(=O)O [Example 227, (3S)-3-(4-AMINOBUTYL)-4-HYDROXY-1-[(4-HYDROXY-2-THIOPHEN-2-YLPHENYL)METHYL]-4-OXO-1,4-AZAPHOSPHINANE-3-CARBOXYLIC ACID] | 84 | 91
NCCCC[C@@]1(C(=O)O)CN(Cc2ccc(O)cc2-c2ccc(F)cc2)CCP1(=O)O [Example 228, (3S)-3-(4-AMINOBUTYL)-1-[[2-(4-FLUOROPHENYL)-4-HYDROXYPHENYL]-METHYL]-4-HYDROXY-4-OXO-1,4-AZAPHOSPHINANE-3-CARBOXYLIC ACID] | 63 | 82
COc1ccc(-c2cc(O)ccc2CN2CCP(=O)(O)[C@](CCCCN)(C(=O)O)C2)cc1OC [Example 229, (3S)-3-(4-AMINOBUTYL)-1-[[2-(3,4-DIMETHOXYPHENYL)-4-HYDROXYPHENYL]-METHYL]-4-HYDROXY-4-OXO-1,4-AZAPHOSPHINANE-3-CARBOXYLIC ACID] | 81 | 89
Cn1nc(C(F)(F)F)cc1-c1ccccc1CN1CCP(=O)(O)[C@](CCCCN)(C(=O)O)C1 [Example 232, (3S)-3-(4-AMINOBUTYL)-4-HYDROXY-1-[[2-[2-METHYL-5-(TRIFLUOROMETHYL)-PYRAZOL-3-YL]PHENYL]METHYL]-4-OXO-1,4-AZAPHOSPHINANE-3-CARBOXYLIC ACID] | 80 | 89
NCCCC[C@@]1(C(=O)O)CN(Cc2ccc(F)cc2-c2cncnc2)CCP1(=O)O [Example 234, (3S)-3-(4-AMINOBUTYL)-1-[(4-FLUORO-2-PYRIMIDIN-5-YLPHENYL)METHYL]-4-HYDROXY-4-OXO-1,4-AZAPHOSPHINANE-3-CARBOXYLIC ACID] | 68 | 79
Cn1nccc1-c1ccccc1CN1CCP(=O)(O)[C@](CCCCN)(C(=O)O)C1 [Example 235, (3S)-3-(4-AMINOBUTYL)-4-HYDROXY-1-[[2-(2-METHYLPYRAZOL-3-YL)PHENYL]METHYL]-4-OXO-1,4-AZAPHOSPHINANE-3-CARBOXYLIC ACID] | 60 | 77
Cn1nccc1-c1cc(F)ccc1CN1CCP(=O)(O)[C@](CCCCN)(C(=O)O)C1 [Example 236, (3S)-3-(4-AMINOBUTYL)-1-[[4-FLUORO-2-(2-METHYLPYRAZOL-3-YL)PHENYL]-METHYL]-4-HYDROXY-4-OXO-1,4-AZAPHOSPHINANE-3-CARBOXYLIC ACID] | 81 | 91
NCCCC[C@@]1(C(=O)O)CN(Cc2ccccc2-c2cnc3ccccn23)CCP1(=O)O [Example 237, (3S)-3-(4-AMINOBUTYL)-4-HYDROXY-1-[(2-IMIDAZO[1,2-A]PYRIDIN-3-YLPHENYL)METHYL]-4-OXO-1,4-AZAPHOSPHINANE-3-CARBOXYLIC ACID] | 77 | 84
NCCCC[C@@]1(C(=O)O)CN(Cc2ccc(F)cc2-c2cccc(O)c2)CCP1(=O)O [Example 238, (3S)-3-(4-AMINOBUTYL)-1-[[4-FLUORO-2-(3-HYDROXYPHENYL)PHENYL]-METHYL]-4-HYDROXY-4-OXO-1,4-AZAPHOSPHINANE-3-CARBOXYLIC ACID] | 70 | 87
COc1ccc(-c2cc(F)ccc2CN2CCP(=O)(O)[C@](CCCCN)(C(=O)O)C2)cn1 [Example 239, (3S)-3-(4-AMINOBUTYL)-1-[[4-FLUORO-2-(6-METHOXYPYRIDIN-3-YL)PHENYL]-METHYL]-4-HYDROXY-4-OXO-1,4-AZAPHOSPHINANE-3-CARBOXYLIC ACID] | 85 | 96
NCCCC[C@@]1(C(=O)O)CN(Cc2ccccc2-c2ccc(O)nc2)CCP1(=O)O [Example 240, (3S)-3-(4-AMINOBUTYL)-4-HYDROXY-1-[[2-(6-HYDROXYPYRIDIN-3-YL)PHENYL]METHYL]-4-OXO-1,4-AZAPHOSPHINANE-3-CARBOXYLIC ACID] | 66 | 80
